Data set [1] relates to human mesenchymal stem cells. In words: Cell viability with scaffold samples introduced into the medium. The class given is cell-based. To be noted: scaffold prepared with 5 wt. % initiator in the medium, after 72 hours. As to the method:
Said initiators are typically those with decomposition temperature ranging from between about 25 to about 100° C. Examples include but are not limited to azobis-isobutyronitrile (AIBN) and benzoyl peroxide (BPO). Preliminary tack-free time studies of polyHIPE emulsions prepared with 5 wt. % AIBN or BPO indicated a […] cure time compared with emulsions prepared with 5 wt. % ammonium persulfate. The time to cure was about 7-12 hours with an ammonium persulfate initiator (aqueous phase free radical initiator) as compared with about 1.5 hours with the AIBN or BPO (organic soluble free radical initiator).

A further data set is described as follows: Macromer viscosity. The class given is physicochemical. On the procedure: Further described is a method of preparing a polyHIPE. In one form the polyHIPE is prepared with a biodegradable fumerate having ester linkages. One example is PFDMA. The method further comprises a two-step process. The first step produced an intermediate molecule as a diester intermediate. In one form the intermediate was bis-(1,2-hydroxypropyl)fumarate (FIG. 1A). The intermediate was then functionalized with methacrylate endgroups (FIG. 1B). With purification, the structure of the resulting formed material, PFDMA, was confirmed with ^1H NMR, as represented in FIG. 2. Integration ratio of methacryloyl protons to fumarate protons in the ^1H NMR spectra was confirmed and the formed structure was, in this example, a PFDMA as a single fumarate unit with two terminal methacrylate groups. The average functionalization was calculated to be greater than 80%. In some embodiments, functionalization was calculated to be at or about 83%. The methacrylate and fumarate groups provided sites for radical crosslinking as further described below. It is, in part, the crosslinking as described herein that allows cure of the HIPE at physiological temperatures.

Data set [2] concerns human mesenchymal stem cells (hMSCs). In words: hMSC adhesion and spreading on scaffolds and films. To be noted: polyHIPE scaffolds fabricated with PGPR, AIBN initiated, between 3 and 24 hours after seeding. The class given is cell-based. On the procedure: For three-dimensional scaffolds described herein, the behavior of the surfactant may be further modified to improve cell adhesion to the scaffold of cells, such as fibroblasts, mesenchymal stem cells, osteoblasts, chondrocytes, and other matrix formed cells. […] PolyHIPEs were prepared with PGPR and initiated with AIBN. When cured, as previously described, samples were sectioned using a precision diamond wafering saw. Prior to seeding with human mesenchymal stem cells (hMSCs), the polyHIPEs samples were soaked in 70% ethanol to sterilize, subjected to a wetting ladder to increase aqueous solution penetration, and incubated overnight in medium enhanced with 40 wt. % fetal bovine serum (FBS). The scaffolds were then seeded at a concentration of about 2×10^3 and 10×10^3 cells/cm^2. On scaffolds fabricated with PGPR, hMSC adhesion and spreading declined when measured between 3 and 24 hours after seeding. It was hypothesized that PGPR may be affecting protein adsorption and/or their conformation when attempting to localize on the polyHIPE scaffold. This was further analyzed on PFDMA films prepared with and without PGPR. The effect of PGPR on protein adsorption and/or conformation was confirmed at 24 hours, in which hMSC adhesion and spreading decreased on PGPR-PFDMA film specimens as compared with control (PFDMA alone) specimens. […]

A further data set concerns cells. In words: Cytocompatibility of cells after addition of surfactant PGPR. Type of data set: cell-based. To be noted: concentrations that permit emulsification (0.1, 1.0 or 5 wt. %). The source says:
FIG. 3C depicts cytocompability of cells after addition of the surfactant, PGPR, at 0.1 wt. %, 1.0 wt. % or 5 wt. %;

`O=C(OOC(=O)c1ccccc1)c1ccccc1` [BPO, benzoyl peroxide]: in data set [1], the “effect on cell viability” value is given as “Neither 5 wt. % AIBN or 5 wt. % BPO appeared to greatly effect cell viability”.
“propylene fumarate dimethacrylate [PFDMA]”: the viscosity entry in the data set “Macromer viscosity” is on record as “about 125 cP”.
As to `CC(C)(C#N)N=NC(C)(C)C#N` [AIBN, azobis-isobutyronitrile], in data set [1], the “effect on cell viability” value is “Neither 5 wt. % AIBN or 5 wt. % BPO appeared to greatly effect cell viability”.
Consider “polyglycerol polyricinoleate [PGPR 4125]”, for which the “hMSC adhesion and spreading on scaffolds” value in data set [2] is listed as “declined”. Further, in the data set with cells, the cytocompatibility with cells entry is listed as “cytocompatible”.

The record behind these values is patent US9180094B2, “High porosity materials, scaffolds, and method of making” (The Texas A&M University System, priority 2011, dated 2015).
